Results published in PubChem BioAssay AID256 (DTP/NCI, 2004).
Where “and” joins values, the source holds several entries; their conditions need not be identical. Identical values can stand only once. Inconclusive results and toxic doses are left out.

Tested on: CD2F1 mice, L1210 leukemia ip, survival T/C
Assay: NCI In Vivo Anticancer Drug Screen. Data for tumor model L1210 Leukemia (intraperitoneal) in CD2F1 (CDF1) mice
Conditions: higher = longer survival
In short: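 Each value reflects a quotient of treated over vehicle control outcomes in mice with a transplanted tumor.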

[1] = endpoint: mean survival time, dose: 100.0 mg/kg/injection, schedule: Q04DX003 (ip), vehicle: saline with Tween-80
[2] = endpoint: mean survival time, dose: 200.0 mg/kg/injection, schedule: Q04DX003 (ip), vehicle: saline with Tween-80
[3] = endpoint: mean survival time, dose: 400.0 mg/kg/injection, schedule: Q04DX003 (ip), vehicle: saline with Tween-80
[4] = endpoint: mean survival time, dose: 100.0 mg/kg/injection, schedule: Q01DX001 (ip), vehicle: saline with Tween-80

CC[n+]1ccc(Nc2ccc(NC(=O)c3ccc(Nc4cc[n+](CC)c5ccc(N)cc45)cc3)cc2)cc1
T/C (endpoint: mean survival time, dose: 0.25 mg/kg/injection, schedule: Q01DX009 (ip), vehicle: saline): 109 % of control | T/C (endpoint: mean survival time, dose: 0.5 mg/kg/injection, schedule: Q01DX009 (ip), vehicle: water): 153 % of control | T/C (endpoint: mean survival time, dose: 1.0 mg/kg/injection, schedule: Q01DX009 (ip), vehicle: saline): 154 % of control | T/C (endpoint: mean survival time, dose: 1.0 mg/kg/injection, schedule: Q01DX009 (ip), vehicle: water): 228 % of control | T/C (endpoint: mean survival time, dose: 2.0 mg/kg/injection, schedule: Q01DX009 (ip), vehicle: saline): 243 % of control | T/C (endpoint: mean survival time, dose: 2.0 mg/kg/injection, schedule: Q01DX009 (ip), vehicle: water): 224 % of control | T/C (endpoint: mean survival time, dose: 4.0 mg/kg/injection, schedule: Q01DX009 (ip), vehicle: water): 115 % of control

CC(C)(C)c1ccc(-c2ccncc2)cc1
T/C (endpoint: mean survival time, dose: 100.0 mg/kg/injection, schedule: Q04DX002 (ip), vehicle: saline with Tween-80): 87 % of control | T/C (endpoint: mean survival time, dose: 200.0 mg/kg/injection, schedule: Q04DX002 (ip), vehicle: saline with Tween-80): 105 % of control

CN(C)CC(=O)N/N=C\c1ccc([N+](=O)[O-])s1
T/C (endpoint: mean survival time, dose: 50.0 mg/kg/injection, schedule: Q01DX009 (ip), vehicle: saline): 91 % of control | T/C (endpoint: mean survival time, dose: 100.0 mg/kg/injection, schedule: Q01DX009 (ip), vehicle: saline): 93 % of control

O=C(CC(=O)C(F)(F)F)c1ccco1.O=C(CC(=O)C(F)(F)F)c1ccco1.O=C(CC(=O)C(F)(F)F)c1ccco1.[Eu]
T/C [1]: 94 % of control | T/C [2]: 94 % of control | T/C [3]: 89 % of control

Cc1ccc(N=C(N)NC#N)cc1C
T/C (endpoint: mean survival time, dose: 100.0 mg/kg/injection, schedule: Q01DX009 (ip), vehicle: saline with Tween-80): 95 % of control | T/C (endpoint: mean survival time, dose: 200.0 mg/kg/injection, schedule: Q01DX009 (ip), vehicle: saline with Tween-80): 97 % of control

CC1CCC(NC2=NCCO2)C(C)C1 (stereo not drawn)
T/C (endpoint: mean survival time, dose: 12.5 mg/kg/injection, schedule: Q01DX009 (ip), vehicle: saline with Tween-80): 105 % of control | T/C (endpoint: mean survival time, dose: 25.0 mg/kg/injection, schedule: Q01DX009 (ip), vehicle: saline with Tween-80): 112 % of control | T/C (endpoint: mean survival time, dose: 25.0 mg/kg/injection, schedule: Q04DX003 (ip), vehicle: saline with Tween-80): 101 % of control | T/C (endpoint: mean survival time, dose: 50.0 mg/kg/injection, schedule: Q01DX009 (ip), vehicle: saline with Tween-80): 101 % of control | T/C (endpoint: mean survival time, dose: 50.0 mg/kg/injection, schedule: Q04DX003 (ip), vehicle: saline with Tween-80): 101 % of control

O=C(CC1(Cl)C(F)(F)C(F)(F)C1(F)F)c1ccccc1
T/C [4]: 95 % of control

O=S(=O)(O)O.[NH-]C1CCCCC1C1CCCCC1[NH-].[Pt+2] (stereo not drawn)
T/C (endpoint: mean survival time, dose: 3.12 mg/kg/injection, schedule: Q04DX003 (ip), vehicle: distilled water + Tween-80): 119 % of control | T/C (endpoint: mean survival time, dose: 12.5 mg/kg/injection, schedule: Q04DX003 (ip), vehicle: distilled water + Tween-80): 156 % of control

O=C(O)CC1OCC=C2C[N+]3([O-])CCC45c6ccccc6NC4C1C2CC53 (stereo not drawn)
T/C (endpoint: mean survival time, dose: 75.0 mg/kg/injection, schedule: Q01DX001 (ip), vehicle: other): 100 % of control | T/C (endpoint: mean survival time, dose: 150.0 mg/kg/injection, schedule: Q01DX001 (ip), vehicle: other): 98 % of control

C=C1C(=O)OCC2CCCCC12C (stereo not drawn)
T/C (endpoint: mean survival time, dose: 1.25 mg/kg/injection, schedule: Q01DX009 (ip), vehicle: saline with Tween-80): 98 % of control | T/C (endpoint: mean survival time, dose: 2.5 mg/kg/injection, schedule: Q01DX009 (ip), vehicle: saline with Tween-80): 101 % of control | T/C (endpoint: mean survival time, dose: 5.0 mg/kg/injection, schedule: Q01DX009 (ip), vehicle: saline with Tween-80): 101 % of control | T/C (endpoint: mean survival time, dose: 10.0 mg/kg/injection, schedule: Q01DX009 (ip), vehicle: saline with Tween-80): 98 % of control

Nc1cccc(OCc2nc(N)nc(N)c2-c2ccc(Cl)cc2)c1
T/C (endpoint: mean survival time, dose: 37.5 mg/kg/injection, schedule: Q01DX001 (ip), vehicle: saline): 96 % of control | T/C (endpoint: mean survival time, dose: 75.0 mg/kg/injection, schedule: Q01DX001 (ip), vehicle: saline): 100 % of control | T/C (endpoint: mean survival time, dose: 150.0 mg/kg/injection, schedule: Q01DX001 (ip), vehicle: saline): 91 % of control

O=C(c1ccccc1)C1(c2ccccc2)CC1
T/C [1]: 108 % of control | T/C [2]: 101 % of control | T/C [3]: 101 % of control

CCC(C(=O)O)c1ccc(-c2ccccc2)cc1 (stereo not drawn)
T/C [4]: 91 % of control | T/C (endpoint: mean survival time, dose: 200.0 mg/kg/injection, schedule: Q01DX001 (ip), vehicle: saline with Tween-80): 93 % of control | T/C (endpoint: mean survival time, dose: 400.0 mg/kg/injection, schedule: Q01DX001 (ip), vehicle: saline with Tween-80): 92 % of control

O=CC(O)C(O)C(O)C(O)C(=O)O.O=CC(O)C(O)C(O)C(O)C(=O)O.[NH-]C1CCCCC1[NH-].[Pt+2] (stereo not drawn)
T/C (endpoint: mean survival time, dose: 1.56 mg/kg/injection, schedule: Q04DX003 (ip), vehicle: saline): 118 % of control | T/C (endpoint: mean survival time, dose: 3.12 mg/kg/injection, schedule: Q04DX003 (ip), vehicle: saline): 114 % of control | T/C (endpoint: mean survival time, dose: 6.25 mg/kg/injection, schedule: Q04DX003 (ip), vehicle: saline): 191 % of control and 184 % of control | T/C (endpoint: mean survival time, dose: 12.5 mg/kg/injection, schedule: Q04DX003 (ip), vehicle: saline): 212 % of control and 168 % of control and 213 % of control | T/C (endpoint: mean survival time, dose: 25.0 mg/kg/injection, schedule: Q04DX003 (ip), vehicle: saline): 274 % of control [middle of 4 runs] | T/C (endpoint: mean survival time, dose: 50.0 mg/kg/injection, schedule: Q04DX003 (ip), vehicle: saline): 154 % of control and 216 % of control and 330 % of control | T/C (endpoint: median survival time, dose: 3.12 mg/kg/injection, schedule: Q04DX003 (ip), vehicle: saline): 104 % of control | T/C (endpoint: median survival time, dose: 6.25 mg/kg/injection, schedule: Q04DX003 (ip), vehicle: saline): 106 % of control | T/C (endpoint: median survival time, dose: 12.5 mg/kg/injection, schedule: Q04DX003 (ip), vehicle: saline): 106 % of control | T/C (endpoint: median survival time, dose: 25.0 mg/kg/injection, schedule: Q04DX003 (ip), vehicle: saline): 107 % of control | T/C (endpoint: median survival time, dose: 50.0 mg/kg/injection, schedule: Q04DX003 (ip), vehicle: saline): 111 % of control | T/C (endpoint: median survival time, dose: 100.0 mg/kg/injection, schedule: Q04DX003 (ip), vehicle: saline): 110 % of control | T/C (endpoint: median survival time, dose: 200.0 mg/kg/injection, schedule: Q04DX003 (ip), vehicle: saline): 116 % of control

CC1(C(=O)c2ccccc2)OC1c1ccccc1 (stereo not drawn)
T/C (endpoint: mean survival time, dose: 100.0 mg/kg/injection, schedule: Q04DX003 (ip), vehicle: acetone): 103 % of control | T/C (endpoint: mean survival time, dose: 200.0 mg/kg/injection, schedule: Q04DX003 (ip), vehicle: acetone): 103 % of control | T/C (endpoint: mean survival time, dose: 400.0 mg/kg/injection, schedule: Q04DX003 (ip), vehicle: acetone): 98 % of control

NP(=O)(Oc1cccc2c(OP(N)(=O)N(CCCl)CCCl)cccc12)N(CCCl)CCCl (stereo not drawn)
T/C (endpoint: mean survival time, dose: 31.25 mg/kg/injection, schedule: Q01DX001 (ip), vehicle: distilled water + Tween-80): 95 % of control | T/C (endpoint: mean survival time, dose: 62.5 mg/kg/injection, schedule: Q01DX001 (ip), vehicle: distilled water + Tween-80): 95 % of control | T/C (endpoint: mean survival time, dose: 125.0 mg/kg/injection, schedule: Q01DX001 (ip), vehicle: distilled water + Tween-80): 95 % of control | T/C (endpoint: mean survival time, dose: 250.0 mg/kg/injection, schedule: Q01DX001 (ip), vehicle: distilled water + Tween-80): 97 % of control | T/C (endpoint: mean survival time, dose: 500.0 mg/kg/injection, schedule: Q01DX001 (ip), vehicle: distilled water + Tween-80): 95 % of control

CN(C)CCCOc1nc2c(c(=O)n(C)c(=O)n2C)n1C (tested in a mixture with another compound)
T/C (endpoint: median survival time, dose: 6.25 mg/kg/injection, schedule: Q01DX009 (ip), vehicle: Klucel (hydroxypropylcellulose) (HPC)): 111 % of control | T/C (endpoint: median survival time, dose: 12.5 mg/kg/injection, schedule: Q01DX009 (ip), vehicle: Klucel (hydroxypropylcellulose) (HPC)): 116 % of control and 117 % of control | T/C (endpoint: median survival time, dose: 50.0 mg/kg/injection, schedule: Q01DX009 (ip), vehicle: Klucel (hydroxypropylcellulose) (HPC)): 154 % of control and 176 % of control | T/C (endpoint: median survival time, dose: 100.0 mg/kg/injection, schedule: Q01DX009 (ip), vehicle: Klucel (hydroxypropylcellulose) (HPC)): 155 % of control and 185 % of control | T/C (endpoint: median survival time, dose: 200.0 mg/kg/injection, schedule: Q01DX009 (ip), vehicle: Klucel (hydroxypropylcellulose) (HPC)): 172 % of control

OCC1OC(n2cc(I)c3c2ncn2ccnc32)C(O)C1O (stereo not drawn)
T/C (endpoint: mean survival time, dose: 1.56 mg/kg/injection, schedule: Q01DX005 (ip), vehicle: water): 92 % of control | T/C (endpoint: mean survival time, dose: 3.13 mg/kg/injection, schedule: Q01DX005 (ip), vehicle: water): 92 % of control | T/C (endpoint: mean survival time, dose: 6.25 mg/kg/injection, schedule: Q01DX005 (ip), vehicle: water): 97 % of control | T/C (endpoint: mean survival time, dose: 12.5 mg/kg/injection, schedule: Q01DX005 (ip), vehicle: water): 104 % of control | T/C (endpoint: mean survival time, dose: 25.0 mg/kg/injection, schedule: Q01DX005 (ip), vehicle: water): 100 % of control

CC(=O)OCc1ccc(Cl)cc1
T/C [1]: 94 % of control | T/C [2]: 96 % of control | T/C [3]: 96 % of control

CCSC(C(OC(C)=O)C(OC(C)=O)C(COC(C)=O)OC(C)=O)n1cc(F)c(=O)[nH]c1=O (stereo not drawn)
T/C (endpoint: mean survival time, dose: 12.5 mg/kg/injection, schedule: Q01DX005 (ip), vehicle: other): 100 % of control and 104 % of control | T/C (endpoint: mean survival time, dose: 25.0 mg/kg/injection, schedule: Q01DX005 (ip), vehicle: other): 98 % of control and 105 % of control | T/C (endpoint: mean survival time, dose: 50.0 mg/kg/injection, schedule: Q01DX005 (ip), vehicle: other): 88 % of control and 98 % of control | T/C (endpoint: mean survival time, dose: 100.0 mg/kg/injection, schedule: Q01DX005 (ip), vehicle: other): 98 % of control and 105 % of control | T/C (endpoint: mean survival time, dose: 200.0 mg/kg/injection, schedule: Q01DX005 (ip), vehicle: other): 94 % of control and 107 % of control
